Values quoted from earlier work as cited in US12728106B2, “Multiparticulate pharmaceutical composition of tamsulosin and solifenacin” (priority 2020, dated 2026).
Where two headings read alike, the source gives them in different places.

| Solubility in dimethyl sulfoxide (room temperature, dimethyl sulfoxide) | Solubility in glacial acetic acid (room temperature, glacial acetic acid) | Solubility in methanol (room temperature, methanol) | Solubility in water (room temperature) | Solubility in water | SMILES |
| --- | --- | --- | --- | --- | --- |
| freely soluble | freely soluble | freely soluble | freely soluble |  | O=C(O[C@H]1CN2CCC1CC2)N1CCc2ccccc2[C@@H]1c1ccccc1 [Solifenacin succinate, butanedioic acid compound with (1S)-(3R)-1-azabicyclo[2.2.2]oct-3-yl 3,4-dihydro-1-phenyl-2(1H)-iso-quinolinecarboxylate (1:1)] |
|  |  |  |  | sparingly soluble | CCOc1ccccc1OCCN[C@H](C)Cc1ccc(OC)c(S(N)(=O)=O)c1.Cl [Tamsulosin hydrochloride, (−)-(R)-5-[2-[[2-(o-Ethoxyphenoxy)ethyl]amino]propyl]-2methoxybenzenesulfonamide, monohydrochloride] |
